Test results: patent US9707267B2, “Beta-turn peptidomimetic cyclic compounds for treating dry eye” (Mimetogen Pharmaceuticals, Inc., priority 2008, dated 2017)

Legend:
naïve rats = experiment: Tear mucin production in naïve rats following topical instillation, ELLA (Example 4); assay type: in vivo, rat
Procedure: Dose-ranging studies were conducted on the topical instillations of compound D3 in stimulating mucin production in naïve rats. Thirty male sprague dawley rats were divided into five groups of six rats per group and were treated bilaterally once every hour for six consecutive hours with either saline, 0.4% of compound D3, 1.0% of compound D3, 2.5% of compound D3 and 0.00053% of NGF. Once anesthetized, each animal received a 5 μL topical instillation of test article into the lower conjunctival sac of both eyes using a calibrated micropipette.
Tear fluid washings from both eyes were pooled and were collected prior to treatment and following six hourly instillations of saline, compound D3 and NGF. All tear fluid washings were evaluated for mucin concentration by an enzyme-linked lectin assay (ELLA).
The mean and standard deviation (SD) were used to characterize the data. The differences in mucin concentration was calculated from treated minus baseline from groups of rats. Continuous mucin changes between two groups from baseline were evaluated using the paired t test. The mucin changes between more than two treatment groups were analyzed using an analysis of variance. The median mucin changes between treatment groups were compared against a theoretical median of zero using the […]. A two-sided test with P<0.05 was considered to be statistically significant. Statistical analysis were performed using GraphPad Prism 4.0C (GraphPad Software Inc., La Jolla, Calif.).

[1] = system: scopolamine induced dry eye model; experiment: Scopolamine induced dry eye model, Schirmer test (Example 3); assay type: in vivo, rat; settings: single topical instillation of 1% on day eight; measured day thirteen
Procedure: (§1) Dry eye was induced using scopolamine (Sigma-Aldrich, St. Louis, Mo.), which was continuously and systemically delivered to the animals via an osmotic pump (2ML4 Alzet®; CedarLane, Burlington, Ontario) filled with scopolamine and implanted subcutaneously in the mid dorsal area between the scapulae. The wound was closed with 2-3 wound clips. After the surgery and again the next day, the animals were subcutaneously injected with Carprofen (0.5 mg/100 g) a non-steroidal anti-inflammatory drug and potent, long-acting analgesic in rodents. Animals were anaesthetized before the surgical pump implantation and before all clinical endpoint testing in an Isofluorane 99.9% USP (Abraxis Bioscience, Richmond Hill, Ontario) chamber. […]
Tear production was measured with Zone-Quick standardized phenol-red threads (FCI Ophthalmics, Marshfield Hills, Mass.) on animals lightly sedated with Isoflurane. […] The length of the stained moistened portion of the thread was measured in millimeters, using the scale provided with the threads to an accuracy of 1 mm. […]

[2] = system: scopolamine induced dry eye model; experiment: Scopolamine induced dry eye model, corneal fluorescein staining (Example 3); assay type: in vivo, rat; settings: single topical 5 μl of 1% (10 mg/mL) on day eight; read day fourteen; score 0 to 4
Procedure: as §1, with “chamber. Scopolamine was delivered at 12.5 mg/day and, for technical reasons, the data was evaluated at day 14.” for “chamber.”
The clinical signs of corneal dryness were evaluated by fluorescein impregnation of the cornea. […] For each animal, the punctate fluorescent-positive area of the ocular surface was recorded in a blinded fashion. […]

[3] = Maximum solubility in topical dosing solution; assay type: physicochemical; settings: buffered saline ~pH 7, isotonic; 25.0 mg per mL solution
Procedure: Compound D3 was prepared using a formulation designed by Mimetogen Pharmaceuticals, which is buffered saline ˜pH 7 (as determined by pH indicator strips, EMD Chemicals). Three topical dosing solutions were prepared as follows: • A topical dosing solution of 0.4% was prepared using 4.0 mg of compound dissolved in 845 μL, of sterile milliQ water. The solution was adjusted to ˜pH 7 with 6.5 μL of 1.0 N NaOH (VWR) using pH indicator strips and made isotonic (0.9% NaCl) by adding 148.5 μL of sterile 1.0 M NaCl. • A topical dosing solution of 1.0% was prepared using 10.0 mg of compound dissolved in 845 μL of sterile milliQ water. […] The solution was adjusted to ˜pH 7 with 20 μL of 1.0 N NaOH. The solution was made isotonic by adding 135 μL of sterile 1.0 M NaCl. All solutions were sonicated for 5 min. All compound D3 solutions were stored refrigerated (2-8° C.) for the duration of the study.

[4] = 2.5%, 5 μL bilaterally once every hour for six hours

Question: For `NCCCC[C@@H]1NC(=O)[C@H](CCC(=O)O)NC(=O)c2cc([N+](=O)[O-])ccc2OCCC(C(=O)NCC(=O)O)NC1=O` (stereo partly shown) [Compound D3], which “mean changes in mucin concentration (in words)” value (naïve rats; 0.4%, 1.0%, 2.5%, six hourly instillations) is on record?
Answer: Its value is “dose-dependent”.

Question: What about the “tear mucin concentration at baseline” value (naïve rats; 2.5% group, prior to treatment) of the same compound?
Answer: The value was 3.0 ± 1.9 ng/µL.

Question: And the “change in mucin concentration from baseline” value (naïve rats; [4])?
Answer: Its value is 4.0 ± 3.5 ng/µL.

Question: And the “tear mucin concentration after treatment” value (naïve rats; [4])?
Answer: Its value is 7.0 ± 4.5 ng/µL.

Question: And the “aqueous tear production, Schirmer test (in words)” value [1]?
Answer: Its value is “no effect on aqueous tear production”.

Question: What about the “corneal fluorescein staining, mean score” value [2] of the same compound?
Answer: The value was 1.1±0.1 score.

Question: What about the maximum solubility [3] of the same compound?
Answer: The maximum solubility was 2.5%.
